Columns and labels:
[1] = target: T1, NUAK family SNF1-like kinase 2 (Homo sapiens) (UniProt Q9H093); experiment: Inhibition of human NUAK2 at 18.6 nM by HotSpot assay relative to control
T1 sequence (whole entry): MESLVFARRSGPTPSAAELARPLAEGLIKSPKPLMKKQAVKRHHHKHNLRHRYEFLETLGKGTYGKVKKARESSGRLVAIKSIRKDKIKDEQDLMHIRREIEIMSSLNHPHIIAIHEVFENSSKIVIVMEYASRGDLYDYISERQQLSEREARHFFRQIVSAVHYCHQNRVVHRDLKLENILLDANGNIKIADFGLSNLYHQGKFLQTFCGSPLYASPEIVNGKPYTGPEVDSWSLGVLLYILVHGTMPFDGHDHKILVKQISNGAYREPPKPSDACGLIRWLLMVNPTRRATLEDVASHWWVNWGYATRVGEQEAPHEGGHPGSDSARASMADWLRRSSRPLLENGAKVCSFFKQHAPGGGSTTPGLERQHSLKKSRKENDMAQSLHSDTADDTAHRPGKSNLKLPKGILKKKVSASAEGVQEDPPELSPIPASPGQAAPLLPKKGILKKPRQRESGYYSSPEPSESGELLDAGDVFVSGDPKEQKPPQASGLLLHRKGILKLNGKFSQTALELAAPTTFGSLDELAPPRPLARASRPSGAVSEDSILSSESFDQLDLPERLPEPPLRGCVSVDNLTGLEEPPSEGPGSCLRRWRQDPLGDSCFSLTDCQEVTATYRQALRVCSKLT

[2] = target: T2, Serine/threonine-protein kinase Nek2 (Homo sapiens) (UniProt P51955); experiment: Inhibition of human NEK2 at 18.6 nM by HotSpot assay relative to control
T2 sequence (whole entry): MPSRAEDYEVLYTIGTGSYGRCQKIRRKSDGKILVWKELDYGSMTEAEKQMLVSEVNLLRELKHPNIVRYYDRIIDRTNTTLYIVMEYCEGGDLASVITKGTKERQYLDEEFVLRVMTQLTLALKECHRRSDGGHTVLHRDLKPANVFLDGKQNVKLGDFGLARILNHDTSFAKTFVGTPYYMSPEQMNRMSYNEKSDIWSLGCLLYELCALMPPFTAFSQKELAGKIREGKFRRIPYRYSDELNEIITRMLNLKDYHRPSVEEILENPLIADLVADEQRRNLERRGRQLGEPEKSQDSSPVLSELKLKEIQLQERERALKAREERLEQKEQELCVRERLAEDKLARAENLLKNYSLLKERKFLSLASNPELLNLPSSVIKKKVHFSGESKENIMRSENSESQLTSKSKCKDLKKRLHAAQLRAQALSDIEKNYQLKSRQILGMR

[3] = target: T3, Serine/threonine-protein kinase D1 (Homo sapiens) (UniProt Q15139); experiment: Inhibition of human PRKD1 at 18.6 nM by HotSpot assay relative to control
T3 sequence (whole entry): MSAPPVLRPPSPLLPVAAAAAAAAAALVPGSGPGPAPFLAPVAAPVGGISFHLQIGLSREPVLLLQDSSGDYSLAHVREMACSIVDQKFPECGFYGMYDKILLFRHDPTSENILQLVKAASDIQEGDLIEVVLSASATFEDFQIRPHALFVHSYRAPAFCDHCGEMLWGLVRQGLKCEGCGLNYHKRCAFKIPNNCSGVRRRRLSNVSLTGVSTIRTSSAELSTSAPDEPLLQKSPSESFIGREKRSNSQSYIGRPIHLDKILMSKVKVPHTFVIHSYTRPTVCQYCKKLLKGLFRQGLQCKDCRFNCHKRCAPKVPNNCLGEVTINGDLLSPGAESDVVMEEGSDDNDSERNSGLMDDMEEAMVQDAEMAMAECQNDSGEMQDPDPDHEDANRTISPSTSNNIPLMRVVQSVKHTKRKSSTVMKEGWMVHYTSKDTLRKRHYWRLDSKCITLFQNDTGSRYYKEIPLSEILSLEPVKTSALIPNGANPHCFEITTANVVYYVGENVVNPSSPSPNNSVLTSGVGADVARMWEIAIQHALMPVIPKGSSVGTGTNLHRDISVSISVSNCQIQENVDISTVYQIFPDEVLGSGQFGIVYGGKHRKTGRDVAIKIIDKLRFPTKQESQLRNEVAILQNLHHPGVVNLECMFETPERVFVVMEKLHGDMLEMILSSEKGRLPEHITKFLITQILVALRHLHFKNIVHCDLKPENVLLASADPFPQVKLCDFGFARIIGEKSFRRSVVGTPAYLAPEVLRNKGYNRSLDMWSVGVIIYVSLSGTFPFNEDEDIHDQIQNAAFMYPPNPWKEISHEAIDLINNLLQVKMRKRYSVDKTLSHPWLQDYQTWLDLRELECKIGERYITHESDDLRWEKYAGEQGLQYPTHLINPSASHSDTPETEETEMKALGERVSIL

[4] = target: Tyrosine-protein kinase BTK (Homo sapiens) (UniProt Q06187); experiment: Inhibition of human BTK at 18.6 nM by HotSpot assay relative to control
[5] = target: G protein-coupled receptor kinase 6 (Homo sapiens) (UniProt P43250); experiment: Inhibition of human GRK6 at 18.6 nM by HotSpot assay relative to control
[6] = target: T4, Serine/threonine-protein kinase Sgk1 (Homo sapiens) (UniProt O00141); experiment: Inhibition of human SGK1 at 1.82 nM by HotSpot assay relative to control
T4 sequence (whole entry): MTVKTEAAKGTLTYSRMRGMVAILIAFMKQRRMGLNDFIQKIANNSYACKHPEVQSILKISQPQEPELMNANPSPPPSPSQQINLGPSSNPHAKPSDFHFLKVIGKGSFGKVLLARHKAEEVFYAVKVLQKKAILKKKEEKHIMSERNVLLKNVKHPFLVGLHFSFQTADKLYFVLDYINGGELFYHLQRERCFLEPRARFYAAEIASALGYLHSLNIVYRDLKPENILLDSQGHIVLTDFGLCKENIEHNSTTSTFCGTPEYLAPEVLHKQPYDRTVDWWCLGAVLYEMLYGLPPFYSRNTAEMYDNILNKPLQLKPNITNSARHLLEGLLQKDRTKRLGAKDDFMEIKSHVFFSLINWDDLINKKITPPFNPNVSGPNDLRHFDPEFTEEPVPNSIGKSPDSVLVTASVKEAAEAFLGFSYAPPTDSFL

[7] = target: Calcium/calmodulin-dependent protein kinase type II subunit gamma (Homo sapiens) (UniProt Q13555); experiment: Inhibition of human CAMK2g at 1.82 nM by HotSpot assay relative to control
[8] = target: Mitogen-activated protein kinase kinase kinase 9 (Homo sapiens) (UniProt P80192); experiment: Inhibition of human MAP3K9 at 1.82 nM by HotSpot assay relative to control
[9] = target: TGF-beta receptor type-2 (Homo sapiens) (UniProt P37173); experiment: Inhibition of human TGFBR2 at 1.82 nM by HotSpot assay relative to control
[10] = target: Fibroblast growth factor receptor 4 (Homo sapiens) (UniProt P22455); experiment: Inhibition of human FGFR4 at 1.82 nM by HotSpot assay relative to control
Sequence of Fibroblast growth factor receptor 4 (Homo sapiens) (P22455 22-802 limits assumed): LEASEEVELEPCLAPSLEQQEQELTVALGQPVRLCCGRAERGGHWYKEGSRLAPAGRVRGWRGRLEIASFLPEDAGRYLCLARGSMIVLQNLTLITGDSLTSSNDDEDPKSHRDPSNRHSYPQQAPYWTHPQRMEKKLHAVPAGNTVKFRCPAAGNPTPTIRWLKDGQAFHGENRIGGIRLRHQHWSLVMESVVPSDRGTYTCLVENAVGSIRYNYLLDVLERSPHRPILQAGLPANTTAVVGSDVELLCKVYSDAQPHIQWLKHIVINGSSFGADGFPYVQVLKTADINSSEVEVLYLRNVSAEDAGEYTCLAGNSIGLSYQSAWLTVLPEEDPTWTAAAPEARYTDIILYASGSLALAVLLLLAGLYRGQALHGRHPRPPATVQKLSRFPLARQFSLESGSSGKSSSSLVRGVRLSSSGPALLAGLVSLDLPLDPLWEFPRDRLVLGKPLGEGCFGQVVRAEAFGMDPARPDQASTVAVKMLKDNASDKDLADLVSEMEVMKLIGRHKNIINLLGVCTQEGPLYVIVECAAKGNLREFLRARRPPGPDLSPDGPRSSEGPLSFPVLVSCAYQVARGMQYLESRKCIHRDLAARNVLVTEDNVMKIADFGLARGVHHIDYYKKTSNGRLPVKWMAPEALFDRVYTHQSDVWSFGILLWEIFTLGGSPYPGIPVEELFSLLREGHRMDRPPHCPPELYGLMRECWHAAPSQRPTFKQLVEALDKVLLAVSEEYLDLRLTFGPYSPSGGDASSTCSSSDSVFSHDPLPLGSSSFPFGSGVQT

Sequence of Tyrosine-protein kinase BTK (Homo sapiens) (Q06187 whole entry): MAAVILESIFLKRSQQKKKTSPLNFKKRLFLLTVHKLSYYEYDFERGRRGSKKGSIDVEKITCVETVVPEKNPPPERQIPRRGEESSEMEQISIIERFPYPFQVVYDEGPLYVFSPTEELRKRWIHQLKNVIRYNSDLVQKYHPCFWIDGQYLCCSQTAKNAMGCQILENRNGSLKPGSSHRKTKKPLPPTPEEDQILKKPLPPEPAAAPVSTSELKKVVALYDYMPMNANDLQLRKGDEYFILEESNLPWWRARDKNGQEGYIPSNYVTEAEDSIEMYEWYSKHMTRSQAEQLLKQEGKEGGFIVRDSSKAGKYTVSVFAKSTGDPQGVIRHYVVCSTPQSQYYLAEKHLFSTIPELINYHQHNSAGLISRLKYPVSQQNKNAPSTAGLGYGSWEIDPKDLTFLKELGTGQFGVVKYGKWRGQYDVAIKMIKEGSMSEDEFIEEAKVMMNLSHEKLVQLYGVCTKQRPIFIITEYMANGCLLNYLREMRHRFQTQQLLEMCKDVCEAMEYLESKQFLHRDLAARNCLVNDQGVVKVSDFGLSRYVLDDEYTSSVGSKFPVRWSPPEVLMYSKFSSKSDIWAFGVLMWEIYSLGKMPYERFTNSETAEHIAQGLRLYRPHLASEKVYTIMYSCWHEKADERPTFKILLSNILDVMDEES
Sequence of G protein-coupled receptor kinase 6 (Homo sapiens) (P43250 whole entry, looked up): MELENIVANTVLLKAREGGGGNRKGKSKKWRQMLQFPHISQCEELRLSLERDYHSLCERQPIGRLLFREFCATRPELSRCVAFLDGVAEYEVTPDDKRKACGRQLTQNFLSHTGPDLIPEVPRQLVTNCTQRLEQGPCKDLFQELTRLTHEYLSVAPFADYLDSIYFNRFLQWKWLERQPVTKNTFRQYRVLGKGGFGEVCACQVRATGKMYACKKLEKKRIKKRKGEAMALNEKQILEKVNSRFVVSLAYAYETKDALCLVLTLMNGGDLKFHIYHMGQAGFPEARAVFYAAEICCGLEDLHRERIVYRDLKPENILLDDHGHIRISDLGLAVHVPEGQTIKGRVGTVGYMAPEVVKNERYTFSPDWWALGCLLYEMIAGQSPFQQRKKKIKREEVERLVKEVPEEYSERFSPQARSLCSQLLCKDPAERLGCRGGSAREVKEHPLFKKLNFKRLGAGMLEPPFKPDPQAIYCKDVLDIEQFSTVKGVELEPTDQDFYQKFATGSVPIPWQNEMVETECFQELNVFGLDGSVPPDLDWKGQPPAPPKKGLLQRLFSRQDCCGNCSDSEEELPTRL
Sequence of Mitogen-activated protein kinase kinase kinase 9 (Homo sapiens) (P80192 whole entry, looked up): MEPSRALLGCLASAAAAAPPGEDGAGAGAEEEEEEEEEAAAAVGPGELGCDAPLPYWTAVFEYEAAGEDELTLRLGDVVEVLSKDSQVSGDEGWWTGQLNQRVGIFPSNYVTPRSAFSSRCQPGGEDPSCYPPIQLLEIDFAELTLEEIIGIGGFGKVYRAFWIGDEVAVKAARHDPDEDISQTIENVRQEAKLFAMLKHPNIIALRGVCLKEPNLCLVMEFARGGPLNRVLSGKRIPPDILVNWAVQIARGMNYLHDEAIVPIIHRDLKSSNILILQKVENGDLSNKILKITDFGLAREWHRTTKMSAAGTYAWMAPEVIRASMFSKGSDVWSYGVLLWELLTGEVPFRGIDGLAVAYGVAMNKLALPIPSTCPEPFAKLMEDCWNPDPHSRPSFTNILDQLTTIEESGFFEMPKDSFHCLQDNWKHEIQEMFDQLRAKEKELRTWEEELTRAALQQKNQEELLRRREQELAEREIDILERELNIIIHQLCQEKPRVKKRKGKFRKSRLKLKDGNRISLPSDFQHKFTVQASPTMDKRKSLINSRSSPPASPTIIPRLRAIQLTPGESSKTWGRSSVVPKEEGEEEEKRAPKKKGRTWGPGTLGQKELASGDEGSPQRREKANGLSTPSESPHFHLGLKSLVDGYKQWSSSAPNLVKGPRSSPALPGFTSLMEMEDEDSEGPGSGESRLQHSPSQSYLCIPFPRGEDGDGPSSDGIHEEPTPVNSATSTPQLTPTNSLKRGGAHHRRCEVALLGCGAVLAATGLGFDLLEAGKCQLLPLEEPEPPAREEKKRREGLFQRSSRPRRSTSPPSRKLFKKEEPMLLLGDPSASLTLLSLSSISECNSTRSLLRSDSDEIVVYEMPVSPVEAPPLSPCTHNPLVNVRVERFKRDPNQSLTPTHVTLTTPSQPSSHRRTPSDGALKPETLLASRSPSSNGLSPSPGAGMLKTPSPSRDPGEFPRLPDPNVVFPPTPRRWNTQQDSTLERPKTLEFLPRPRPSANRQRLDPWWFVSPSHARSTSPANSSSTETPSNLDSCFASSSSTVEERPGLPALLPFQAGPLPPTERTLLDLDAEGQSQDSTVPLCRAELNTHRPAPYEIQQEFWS
Sequence of TGF-beta receptor type-2 (Homo sapiens) (P37173 whole entry): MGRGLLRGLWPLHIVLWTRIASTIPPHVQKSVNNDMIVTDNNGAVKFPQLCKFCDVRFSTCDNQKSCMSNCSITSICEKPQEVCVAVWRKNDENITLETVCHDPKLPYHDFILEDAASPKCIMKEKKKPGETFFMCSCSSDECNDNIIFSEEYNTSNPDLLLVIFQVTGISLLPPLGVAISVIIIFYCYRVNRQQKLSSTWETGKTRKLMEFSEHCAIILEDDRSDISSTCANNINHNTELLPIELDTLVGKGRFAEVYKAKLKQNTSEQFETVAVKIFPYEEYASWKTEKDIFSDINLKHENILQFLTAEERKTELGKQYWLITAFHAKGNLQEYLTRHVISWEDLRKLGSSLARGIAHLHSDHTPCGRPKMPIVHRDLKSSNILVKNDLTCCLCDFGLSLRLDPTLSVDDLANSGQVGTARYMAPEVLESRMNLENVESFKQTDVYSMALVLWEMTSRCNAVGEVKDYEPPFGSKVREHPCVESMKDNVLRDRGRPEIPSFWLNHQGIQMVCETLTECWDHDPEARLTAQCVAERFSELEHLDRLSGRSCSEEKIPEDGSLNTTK
Sequence of Calcium/calmodulin-dependent protein kinase type II subunit gamma (Homo sapiens) (Q13555 whole entry): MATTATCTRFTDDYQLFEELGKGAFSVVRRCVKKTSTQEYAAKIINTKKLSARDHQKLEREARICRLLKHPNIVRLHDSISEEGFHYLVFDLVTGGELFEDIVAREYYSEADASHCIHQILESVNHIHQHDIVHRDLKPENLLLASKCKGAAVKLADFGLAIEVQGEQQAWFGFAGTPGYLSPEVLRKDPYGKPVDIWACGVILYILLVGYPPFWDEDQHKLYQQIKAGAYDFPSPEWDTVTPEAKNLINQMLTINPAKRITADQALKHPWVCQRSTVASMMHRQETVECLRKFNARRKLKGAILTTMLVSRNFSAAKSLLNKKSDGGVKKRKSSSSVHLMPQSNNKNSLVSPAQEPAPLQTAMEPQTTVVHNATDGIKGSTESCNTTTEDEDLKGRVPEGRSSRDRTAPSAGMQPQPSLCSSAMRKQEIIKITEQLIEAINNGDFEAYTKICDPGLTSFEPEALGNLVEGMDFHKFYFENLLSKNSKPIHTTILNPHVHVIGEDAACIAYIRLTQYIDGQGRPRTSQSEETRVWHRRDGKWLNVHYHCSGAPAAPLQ

inhibition [1]	inhibition [2]	inhibition [3]	inhibition [4]	inhibition [5]	inhibition [6]	inhibition [7]	inhibition [8]	inhibition [9]	inhibition [10]	Structure (SMILES)
11%	4.82%	-2.06%	-1.94%	3.48%						C[C@]1(O)C[C@@H](c2nc(-c3ccc4ccc(-c5ccccc5)nc4c3)c3c(N)nccn32)C1
					-2.56%	4.1%	2.63%	5.94%	6.74%	C[C@@]1(C(=O)Nc2ccc(F)nc2)CCCN1c1nc(Nc2cc(C3CC3)n[nH]2)c2cccn2n1

Source: ChEMBL document CHEMBL5653615 (J Biol Chem, 2013)
